Laboratory results: the supplement of paper PMC10733146

Key:
Experiment in all cases: viability relative to DMSO control (fraction); higher = less drug effect (more viable cells)
Settings in all cases: 48 h
[1] = tested on: primary ALL patient cells (S048)
How it was run: (§1)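 Using 384-well plates with compounds already plated at five concentrations, one well per concentration, 4 × 10^4 primary mononuclear tumour cells were added per well. Cells were Ficoll-isolated from blood or bone marrow or came from processed lymph node, fresh or cryopreserved. They were kept for 48 h at 37 °C and 5% CO2 in RPMI-1640 supplemented with penicillin/streptomycin, L-glutamine and human serum, and viability was read as CellTiter-Glo luminescence relative to the median of 16 inner DMSO wells.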

[2] = tested on: primary ALL patient cells (S088)
How it was run: as §1

[3] = tested on: primary AML patient cells (S006)
How it was run: as §1

[4] = tested on: primary AML patient cells (S011)
How it was run: as §1

[5] = tested on: primary AML patient cells (S012)
How it was run: as §1

[6] = tested on: primary AML patient cells (S017)
How it was run: as §1

[7] = tested on: primary AML patient cells (S021)
How it was run: as §1

[8] = tested on: primary AML patient cells (S056)
How it was run: as §1

[9] = tested on: primary AML patient cells (S060)
How it was run: as §1

[10] = tested on: primary AML patient cells (S081)
How it was run: as §1

[11] = tested on: primary AML patient cells (S085)
How it was run: as §1

[12] = tested on: primary B-PLL patient cells (S016)
How it was run: as §1

[13] = tested on: primary BL patient cells (S005)
How it was run: as §1

[14] = tested on: primary CLL patient cells (S031)
How it was run: as §1

[15] = tested on: primary CLL patient cells (S043)
How it was run: as §1

[16] = tested on: primary FL patient cells (S022)
How it was run: as §1

[17] = tested on: primary FL patient cells (S087)
How it was run: as §1

[18] = tested on: primary MCL patient cells (S053)
How it was run: as §1

[19] = tested on: primary MCL patient cells (S063)
How it was run: as §1

[20] = tested on: primary MCL patient cells (S068)
How it was run: as §1

O=C1c2c(O)ccc(O)c2C(=O)c2c(NCCNCCO)ccc(NCCNCCO)c21 [Mitoxantrone]
viability ([1]; 0.008 µM): 0.449 | viability ([1]; 0.04 µM): 0.0767 | viability ([1]; 0.2 µM): 0.113 | viability ([1]; 1 µM): 0.0232 | viability ([1]; 5 µM): 0.0139 | viability ([2]; 0.008 µM): 0.535 | viability ([2]; 0.04 µM): 0.271 | viability ([2]; 0.2 µM): 0.216 | viability ([2]; 1 µM): 0.0605 | viability ([2]; 5 µM): 0.0218 | viability ([3]; 0.008 µM): 0.426 | viability ([3]; 0.04 µM): 0.155 | viability ([3]; 0.2 µM): 0.0754 | viability ([3]; 1 µM): 0.0534 | viability ([3]; 5 µM): 0.0375 | viability ([4]; 0.008 µM): 0.818 | viability ([4]; 0.04 µM): 0.384 | viability ([4]; 0.2 µM): 0.203 | viability ([4]; 1 µM): 0.041 | viability ([4]; 5 µM): 0.0174 | viability ([5]; 0.008 µM): 0.991 | viability ([5]; 0.04 µM): 0.995 | viability ([5]; 0.2 µM): 0.978 | viability ([5]; 1 µM): 0.862 | viability ([5]; 5 µM): 0.0416 | viability ([6]; 0.008 µM): 0.952 | viability ([6]; 0.04 µM): 0.811 | viability ([6]; 0.2 µM): 0.608 | viability ([6]; 1 µM): 0.126 | viability ([6]; 5 µM): 0.0293 | viability ([7]; 0.008 µM): 0.66 | viability ([7]; 0.04 µM): 0.327 | viability ([7]; 0.2 µM): 0.265 | viability ([7]; 1 µM): 0.212 | viability ([7]; 5 µM): 0.106 | viability ([8]; 0.008 µM): 0.397 | viability ([8]; 0.04 µM): 0.17 | viability ([8]; 0.2 µM): 0.128 | viability ([8]; 1 µM): 0.0823 | viability ([8]; 5 µM): 0.0488 | viability ([9]; 0.008 µM): 0.974 | viability ([9]; 0.04 µM): 0.963 | viability ([9]; 0.2 µM): 1.07 | viability ([9]; 1 µM): 0.332 | viability ([9]; 5 µM): 0.016 | viability ([10]; 0.008 µM): 0.995 | viability ([10]; 0.04 µM): 1.01 | viability ([10]; 0.2 µM): 1.09 | viability ([10]; 1 µM): 0.167 | viability ([10]; 5 µM): 0.0158 | viability ([11]; 0.008 µM): 0.538 | viability ([11]; 0.04 µM): 0.295 | viability ([11]; 0.2 µM): 0.277 | viability ([11]; 1 µM): 0.065 | viability ([11]; 5 µM): 0.0217 | viability ([12]; 0.008 µM): 0.278 | viability ([12]; 0.04 µM): 0.0753 | viability ([12]; 0.2 µM): 0.0754 | viability ([12]; 1 µM): 0.0236 | viability ([12]; 5 µM): 0.014 | viability ([13]; 0.008 µM): 0.963 | viability ([13]; 0.04 µM): 1.55 | viability ([13]; 0.2 µM): 0.853 | viability ([13]; 1 µM): 0.649 | viability ([13]; 5 µM): 0.742 | viability ([14]; 0.008 µM): 0.614 | viability ([14]; 0.04 µM): 0.383 | viability ([14]; 0.2 µM): 0.335 | viability ([14]; 1 µM): 0.0955 | viability ([14]; 5 µM): 0.0133 | viability ([15]; 0.008 µM): 0.739 | viability ([15]; 0.04 µM): 0.849 | viability ([15]; 0.2 µM): 0.488 | viability ([15]; 1 µM): 0.0542 | viability ([15]; 5 µM): 0.0236 | viability ([16]; 0.008 µM): 0.953 | viability ([16]; 0.04 µM): 0.844 | viability ([16]; 0.2 µM): 0.804 | viability ([16]; 1 µM): 0.437 | viability ([16]; 5 µM): 0.229 | viability ([17]; 0.008 µM): 0.868 | viability ([17]; 0.04 µM): 0.763 | viability ([17]; 0.2 µM): 0.717 | viability ([17]; 1 µM): 0.548 | viability ([17]; 5 µM): 0.177 | viability ([18]; 0.008 µM): 0.452 | viability ([18]; 0.04 µM): 0.326 | viability ([18]; 0.2 µM): 0.363 | viability ([18]; 1 µM): 0.236 | viability ([18]; 5 µM): 0.169 | viability ([19]; 0.008 µM): 1.02 | viability ([19]; 0.04 µM): 0.812 | viability ([19]; 0.2 µM): 0.598 | viability ([19]; 1 µM): 0.246 | viability ([19]; 5 µM): 0.0145 | viability ([20]; 0.008 µM): 0.814 | viability ([20]; 0.04 µM): 0.596 | viability ([20]; 0.2 µM): 0.434 | viability ([20]; 1 µM): 0.0583 | viability ([20]; 5 µM): 0.0225
